Here are results for 23 molecules from patent publication US10844044B2 (Vanderbilt University, priority 2018, dated 2020).

Broadly, the Ki is a measure of affinity in units of concentration, obtained from inhibition or displacement.

Like-named read-outs stand apart in the source and are kept apart here.

The test system of assay [1] is MV4:11 human cancer cell lines. Briefly: Anti-proliferative activity, CellTiter-Glo viability assay, 7 day protocol. It counts as cell-based. Particulars: Homo sapiens, MV4-11, 168 h, MV4:11 cells, 7 day incubation, read-out: GI50 on cellular proliferation of MV4:11 human cancer cell lines. The method in brief:
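MV4:11 cells seeded at 3600 cells/ml and exposed to compounds for 7 days, 0.1% DMSO final. Viability measured by CellTiter-Glo luminescence. GI50 from three biological replicates, each in technical triplicate, given as mean ± S.E.M.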
For orientation: Cellular ATP, detected with luciferase, serves as a proxy for viable cell number.

In the next assay the target is WDR5 (Homo sapiens (Human), UniProt P61964). Briefly: TR-FRET binding assay (displacement of 10mer-Thr-FAM probe from WDR5). As to conditions: read-out: Ki for Inhibition of WDR5 by TR-FRET assay. A general note: TR-FRET usually uses a lanthanide donor and a delayed reading to cut background.
The mark [2] stands for this setting: TR-FRET, 10mer-Thr-FAM probe, WDR5-His tag 2 nM, pH 7.0.

For the molecule `Cc1cc([C@@H](NC(=O)c2cc(Cn3ccn(C)c3=N)cc(-c3cccnc3C(F)(F)F)c2)C2CC2)ccc1F` [Example 60, (S)—N-(cyclopropyl(4-fluoro-3-methylphenyl)methyl)-3-((2-imino-3-methyl-2,3-dihydro-1H-imidazol-1-yl)methyl)-5-(2-(trifluoromethyl)pyridin-3-yl)benzamide], the GI50 in assay [1] is less than 100 nM. The Ki at WDR5 (setting [2]) is less than 0.1 nM.
The corresponding values for `COc1cc(OC)cc(C(NC(=O)c2cc(Cn3ccn(C)c3=N)cc(-c3ncccc3C(F)(F)F)c2)C2CC2)c1` (stereo not shown) [Example 61, N-(Cyclopropyl(3,5-dimethoxyphenyl)methyl)-3-((2-imino-3-methyl-2,3-dihydro-1H-imidazol-1-yl)methyl)-5-(3-(trifluoromethyl)pyridin-2-yl)benzamide] are 4200 nM and 2.8 nM.
For the molecule `COc1cc(CNC(=O)c2cc(Cn3ccn(C)c3=N)cc(-c3ccc(F)cc3OC(F)F)c2)cc(OC)c1` [Example 62, 2′-(Difluoromethoxy)-N-(3,5-dimethoxybenzyl)-4′-fluoro-5-((2-imino-3-methyl-2,3-dihydro-1H-imidazol-1-yl)methyl)-[1,1′-biphenyl]-3-carboxamide], in assay [1], the GI50 was determined as 800 nM. Moreover, on WDR5 (setting [2]), the Ki was determined as 0.29 nM.
The like results for `COc1cc(OC)cc(C(NC(=O)c2cc(Cn3ccn(C)c3=N)cc(-c3ccc(F)cc3OC(F)F)c2)C2CC2)c1` (stereo not shown) [Example 63, N-(Cyclopropyl(3,5-dimethoxyphenyl)methyl)-2′-(difluoromethoxy)-4′-fluoro-5-((2-imino-3-methyl-2,3-dihydro-1H-imidazol-1-yl)methyl)-[1,1′-biphenyl]-3-carboxamide] were, in that order, 460 nM and 0.1 nM.
The like results for `Cc1cc([C@@H](NC(=O)c2cc(Cn3ccn(C)c3=N)cc(-c3ncccc3C(F)(F)F)c2)C2CC2)ccc1F` [Example 64, (S)—N-(Cyclopropyl(4-fluoro-3-methylphenyl)methyl)-3-((2-imino-3-methyl-2,3-dihydro-1H-imidazol-1-yl)methyl)-5-(3-(trifluoromethyl)pyridin-2-yl)benzamide] were, in that order, 930 nM and 0.59 nM.
Turning to `COc1cc(CNC(=O)c2cc(Cn3ccn(C)c3=N)cc(-c3c(C)cc(F)cc3C)c2)cc(OC)c1` [Example 65, N-(3,5-dimethoxybenzyl)-4′-fluoro-5-((2-imino-3-methyl-2,3-dihydro-1H-imidazol-1-yl)methyl)-2′,6′-dimethyl-[1,1′-biphenyl]-3-carboxamide], the GI50 in assay [1] was 300 nM. The Ki on WDR5 (setting [2]) was 0.63 nM.
The like results for `Cc1cc([C@@H](NC(=O)c2cc(Cn3ccn(C)c3=N)cc(-c3ncc(F)cc3C)c2)C2CC2)ccc1F` [Example 66, (S)—N-(Cyclopropyl(4-fluoro-3-methylphenyl)methyl)-3-(5-fluoro-3-methylpyridin-2-yl)-5-((2-imino-3-methyl-2,3-dihydro-1H-imidazol-1-yl)methyl)benzamide] were, in that order, 510 nM and 0.12 nM.
In the case of `COc1cc(CNC(=O)c2cc(Cn3ccn(C)c3=N)cc(-c3ncc(F)cc3C)c2)cc(OC)c1` [Example 67, N-(3,5-Dimethoxybenzyl)-3-(5-fluoro-3-methylpyridin-2-yl)-5-((2-imino-3-methyl-2,3-dihydro-1H-imidazol-1-yl)methyl)benzamide], the GI50 in assay [1] worked out at 3800 nM. Besides, the Ki on WDR5 is 3.9 nM.
The corresponding values for `COc1cc(OC)cc(C(NC(=O)c2cc(Cn3ccn(C)c3=N)cc(-c3ncc(F)cc3C)c2)C2CC2)c1` (stereo not shown) [Example 68, N-(Cyclopropyl(3,5-dimethoxyphenyl)methyl)-3-(5-fluoro-3-methylpyridin-2-yl)-5-((2-imino-3-methyl-2,3-dihydro-1H-imidazol-1-yl)methyl)benzamide] are 2700 nM and 0.35 nM.
On to `Cc1ccnc(C(NC(=O)c2cc(Cn3ccn(C)c3=N)cc(-c3ncc(F)cc3C)c2)C2CC2)c1` (stereo not shown) [Example 69], for which, in assay [1], the GI50 is 5100 nM. Further, at WDR5 (setting [2]), the Ki was determined as 2.4 nM.
The like results for `Cc1ccnc(C(NC(=O)c2cc(Cn3ccn(C)c3=N)cc(-c3ccc(F)cc3OC(F)F)c2)C2CC2)c1` (stereo not shown) [Example 71, N-(Cyclopropyl(4-methylpyridin-2-yl)methyl)-2′-(difluoromethoxy)-4′-fluoro-5-((2-imino-3-methyl-2,3-dihydro-1H-imidazol-1-yl)methyl)-[1,1′-biphenyl]-3-carboxamide] were, in that order, 1900 nM and 0.33 nM.
The like results for `Cn1ccn(Cc2cc(C(=O)NC(CC(=O)O)c3ccc(Cl)c(Cl)c3)cc(-c3ccc(F)cc3C(F)(F)F)c2)c1=N` (stereo not shown) [Example 84, 3-(3,4-Dichlorophenyl)-3-(4′-fluoro-5-((2-imino-3-methyl-2,3-dihydro-1H-imidazol-1-yl)methyl)-2′-(trifluoromethyl)-[1,1′-biphenyl]-3-carboxamido)propanoic acid] were, in that order, 2100 nM and 0.12 nM.
In the case of `Cc1ccnc([C@@H](NC(=O)c2cc(Cn3ccn(C)c3=N)cc(-c3ccc(F)cc3C)c2)C2CC2)c1` [Example 91, (S)—N-(Cyclopropyl(4-methylpyridin-2-yl)methyl)-4′-fluoro-5-((2-imino-3-methyl-2,3-dihydro-1H-imidazol-1-yl)methyl)-2′-methyl-[1,1′-biphenyl]-3-carboxamide], the GI50 in assay [1] turned out to be 210 nM. Also, at WDR5 (setting [2]), the Ki was less than 0.1 nM.
With `COc1cc(CNC(=O)c2cc(Cn3ccn(C)c3=N)cc(-c3ccc(F)cc3C(F)(F)F)c2)cc(OC)c1` [Example 98, N-(3,5-Dimethoxybenzyl)-4′-fluoro-5-((2-imino-3-methyl-2,3-dihydro-1H-imidazol-1-yl)methyl)-2′-(trifluoromethyl)-[1,1′-biphenyl]-3-carboxamide], in assay [1], the GI50 came out at 160 nM. The Ki at WDR5 (setting [2]) is 0.06 nM.
As for `Cn1ccn(Cc2cc(C(=O)NC(CC(=O)O)c3ccc(Cl)c(Cl)c3)nc(-c3ccc(F)cc3C(F)(F)F)c2)c1=N` (stereo not shown) [Example 104, 3-(3,4-Dichlorophenyl)-3-(6-(4-fluoro-2-(trifluoromethyl)phenyl)-4-((2-imino-3-methyl-2,3-dihydro-1H-imidazol-1-yl)methyl)picolinamido)propanoic acid], the GI50 in assay [1] is 14000 nM. In addition, the Ki at WDR5 (setting [2]) amounted to 0.13 nM.
The corresponding values for `Cc1ccnc(C(NC(=O)c2cc(Cn3ccn(C)c3=N)cc(-c3ccc(F)cc3C(F)(F)F)c2F)C2CC2)c1` (stereo not shown) [Example 105, N-(Cyclopropyl(4-methylpyridin-2-yl)methyl)-2,4′-difluoro-5-((2-imino-3-methyl-2,3-dihydro-1H-imidazol-1-yl)methyl)-2′-(trifluoromethyl)-[1,1′-biphenyl]-3-carboxamide] are 400 nM and less than 0.1 nM.
The like results for `Cc1cc([C@@H](NC(=O)c2cc(Cn3ccn(C)c3=N)cc(-c3ccc(F)cc3C(F)(F)F)n2)C2CC2)ccc1F` [Example 107, (S)—N-(Cyclopropyl(4-fluoro-3-methylphenyl)methyl)-6-(4-fluoro-2-(trifluoromethyl)phenyl)-4-((2-imino-3-methyl-2,3-dihydro-1H-imidazol-1-yl)methyl)picolinamide] were, in that order, 950 nM and 0.23 nM.
The corresponding values for `COc1cc(CNC(=O)c2cc(Cn3ccn(C)c3=N)cc(-c3ccc(F)cc3C(F)(F)F)c2F)cc(OC)c1` [Example 108, N-(3,5-Dimethoxybenzyl)-2,4′-difluoro-5-((2-imino-3-methyl-2,3-dihydro-1H-imidazol-1-yl)methyl)-2′-(trifluoromethyl)-[1,1′-biphenyl]-3-carboxamide] are 310 nM and less than 0.1 nM.
Regarding `Cc1cc(CNC(=O)c2cc(Cn3ccn(C)c3=N)cc(-c3ccc(F)cc3C(F)(F)F)c2F)ccc1Cl` [Example 111, N-(4-Chloro-3-methylbenzyl)-2,4′-difluoro-5-((2-imino-3-methyl-2,3-dihydro-1H-imidazol-1-yl)methyl)-2′-(trifluoromethyl)-[1,1′-biphenyl]-3-carboxamide], the GI50 in assay [1] worked out at 300 nM. For the same molecule, on WDR5 (setting [2]), the Ki was less than 0.1 nM.
For the molecule `CCn1ccn(Cc2cc(C(=O)N[C@H](c3ccc(F)c(C)c3)C3CC3)cc(-c3cccnc3C(F)(F)F)c2)c1=N` [Example 114, (S)—N-(Cyclopropyl(4-fluoro-3-methylphenyl)methyl)-3-((3-ethyl-2-imino-2,3-dihydro-1H-imidazol-1-yl)methyl)-5-(2-(trifluoromethyl)pyridin-3-yl)benzamide], the GI50 in assay [1] is 300 nM. The Ki on WDR5 was less than 0.1 nM.
As to `Cc1cc([C@@H](NC(=O)c2cc(Cn3ccn(C4CC4)c3=N)cc(-c3cccnc3C(F)(F)F)c2)C2CC2)ccc1F` [Example 115, (S)—N-(Cyclopropyl(4-fluoro-3-methylphenyl)methyl)-3-((3-cyclopropyl-2-imino-2,3-dihydro-1H-imidazol-1-yl)methyl)-5-(2-(trifluoromethyl)pyridin-3-yl)benzamide], in assay [1], the GI50 is less than 100 nM. For the same molecule, the Ki on WDR5 (setting [2]) is less than 0.1 nM.
The like results for `CCn1ccn(Cc2cc(C(=O)NCc3cc(OC)cc(OC)c3)cc(-c3ccc(F)cc3C)c2)c1=N` [Example 116, N-(3,5-Dimethoxybenzyl)-5-((3-ethyl-2-imino-2,3-dihydro-1H-imidazol-1-yl)methyl)-4′-fluoro-2′-methyl-[1,1′-biphenyl]-3-carboxamide] were, in that order, 570 nM and 0.4 nM.
For `COc1cc(CNC(=O)c2cc(Cn3ccn(C4CC4)c3=N)cc(-c3ccc(F)cc3C)c2)cc(OC)c1` [Example 117, 5-((3-Cyclopropyl-2-imino-2,3-dihydro-1H-imidazol-1-yl)methyl)-N-(3,5-dimethoxybenzyl)-4′-fluoro-2′-methyl-[1,1′-biphenyl]-3-carboxamide], the GI50 in assay [1] was found to be 310 nM. For the same molecule, at WDR5 (setting [2]), the Ki stood at 0.15 nM.
